Test results reported in EP4810038A1, “METHOD FOR TREATING ALK-POSITIVE OR ROS1-POSITIVE NON-SMALL CELL LUNG CANCER” (Shenzhen TargetRx Co., Ltd., priority 2023, dated 2025).

Test system: ALK-positive or ROS1-positive advanced non-small cell lung cancer
Experiment: Phase I clinical trial, dose escalation and expansion phases: efficacy (RECIST 1.1)
Format: in vivo, human
Settings: systemic
Experimental: The anti-tumor efficacy is evaluated according to RECIST version 1.1. For patients initially evaluated as having a complete response (CR) or partial response (PR), efficacy should be confirmed at least 4 weeks later. In the patients with asymptomatic central nervous system (CNS) metastases, in addition to evaluating 5 extracranial target lesions, up to 5 intracranial target lesions will also be evaluated. The specific indicators are as follows:
"CR" is defined as the disappearance of all target lesions, and the diameters of the short axis of all the pathological lymph nodes (whether target or non-target lymph nodes) must be reduced to 10 mm or less.
"PR" is defined as a reduction of at least 30% in the total diameter of the target lesions, with the total diameter of the baseline as a reference value.
"PD" is defined as an increase of at least 20% in the total diameter of the target lesions, using the minimum total diameter in the study as a reference value (this value may include the total diameter of the baseline). In addition, the absolute value of the total diameter must increase by at least 5 mm (the appearance of one or more new lesions is also considered as progressive disease).
"SD" is defined as a state in which the reduction in target lesions is insufficient to achieve partial response and the increase is insufficient to achieve progressive disease.
"ORR" includes CR and PR, and is defined as the proportion of patients who achieve complete response or partial response.
"IC-ORR" includes CR or PR for confirmed intracranial lesions, and is defined as the proportion of the patients with complete response or partial response of intracranial lesions among the patients with intracranial lesions.
"DCR" is defined as the proportion of the patients who achieve response (PR+CR) and stable disease (SD) after a treatment.
"IC-DCR" is defined as the proportion of the patients who achieve intracranial response (PR+CR), intracranial stable disease (SD), and […] after a treatment among the patients with intracranial lesions.
"DOR" is defined as the time from the first assessment of CR or PR to progressive disease or death, and is only applicable to the patients who achieve response.
"IC-DOR" is defined as the time from the first assessment of intracranial CR or intracranial PR to progressive disease or death, and is only applicable to the patients whose intracranial lesions achieve response.
"TTR" is defined as the time from patient enrollment (first dose of investigational drug) to tumor response (CR/PR), based on the patients with objective response.
"IC-TTR" is defined as the time from patient enrollment (first dose of investigational drug) to intracranial tumor response (IC-CR/PR), based on the patients with intracranial objective response.
Approximately eight dose groups in total were set in the dose escalation phase, which were 5 (the starting dose), 10, 20, 40, 60, 80, 100, and 125 mg, respectively. Subjects in all the dose groups received a single dose on day 1 (D1), and the blood samples were collected for pharmacokinetic (PK) assay and tolerability observation. If no grade 2 or a higher-level adverse event related to the investigational drug occurred during the single-dose period (5 to 7 days) (if such events occurred, dose adjustments would be made based on the toxicity according to the protocol), the subject entered the multiple-dose period (i.e., treatment period) 5 to 7 days later (7 days after the first administration in the first dose group (i.e., starting the multiple-dose treatment on day 8), and the intervals for the subsequent dose groups were determined based on the obtained tolerability and PK data). […]

SMILES: [2H]C([2H])([2H])n1nc2c(c1C#N)-c1cnc(N)c(c1)O[C@H](C)c1cc(F)ccc1C(=O)N(C)C2 [compound A, (10R)-7-amino-12-fluoro-2-(methyl-d3)-10,16-dimethyl-15-oxo-10,15,16,17-tetrahydro-2H-8,4-(metheno)pyrazolo[4,3-h][2,5,11]benzoxadiazacyclotetradecine-3-carbonitrile]
- DCR (95% CI) (5mg (N=1)): 1 (100) (2.5, 100.0) n (%)
- BOR CR (10mg (N=1)): 0 n (%)
- BOR NE (10mg (N=1)): 0 n (%)
- BOR PD (10mg (N=1)): 0 n (%)
- BOR PR (10mg (N=1)): 0 n (%)
- BOR SD (10mg (N=1)): 1 (100) n (%)
- Confirmed ORR (95% CI) (10mg (N=1)): 0 (0.0, 97.5) n (%)
- DCR (95% CI) (10mg (N=1)): 1 (100) (2.5, 100.0) n (%)
- BOR CR (20mg (N=1)): 0 n (%)
- BOR NE (20mg (N=1)): 0 n (%)
- BOR PD (20mg (N=1)): 0 n (%)
- BOR PR (20mg (N=1)): 1 (100) n (%)
- BOR SD (20mg (N=1)): 0 n (%)
- Confirmed ORR (95% CI) (20mg (N=1)): 1 (100) (2.5, 100.0) n (%)
- DCR (95% CI) (20mg (N=1)): 1 (100) (2.5, 100.0) n (%)
- Median DOR (95% CI) (20mg (N=1)): 6.93 (-, -) months
- Median TTR (range) (20mg (N=1)): 1.35 (1.35, 1.35) months
- BOR CR (40mg (N=10)): 0 n (%)
- BOR NE (40mg (N=10)): 2 (20.0) n (%)
- BOR PD (40mg (N=10)): 2 (20.0) n (%)
- BOR PR (40mg (N=10)): 1 (10.0) n (%)
- BOR SD (40mg (N=10)): 5 (50.0) n (%)
- Confirmed ORR (95% CI) (40mg (N=10)): 1 (10.0) (0.3, 44.5) n (%)
- DCR (95% CI) (40mg (N=10)): 6 (60.0) (26.2, 87.8) n (%)
- Median TTR (range) (40mg (N=10)): 2.73 (2.73, 2.73) months
- BOR CR (60mg (N=12)): 0 n (%)
- BOR NE (60mg (N=12)): 0 n (%)
- BOR PD (60mg (N=12)): 1 (8.3) n (%)
- BOR PR (60mg (N=12)): 6 (50.0) n (%)
- BOR SD (60mg (N=12)): 5 (41.7) n (%)
- Confirmed ORR (95% CI) (60mg (N=12)): 6 (50.0) (21.1, 78.9) n (%)
- DCR (95% CI) (60mg (N=12)): 11 (91.7) (61.5, 99.8) n (%)
- Median DOR (95% CI) (60mg (N=12)): 12.45 (2.79, -) months
- Median TTR (range) (60mg (N=12)): 1.35 (1.35, 6.90) months
- BOR CR (80mg (N=11)): 0 n (%)
- BOR NE (80mg (N=11)): 1 (9.1) n (%)
- BOR PD (80mg (N=11)): 1 (9.1) n (%)
- BOR PR (80mg (N=11)): 4 (36.4) n (%)
- BOR SD (80mg (N=11)): 5 (45.5) n (%)
- Confirmed ORR (95% CI) (80mg (N=11)): 4 (36.4) (10.9, 69.2) n (%)
- DCR (95% CI) (80mg (N=11)): 9 (81.8) (48.2, 97.7) n (%)
- Median DOR (95% CI) (80mg (N=11)): 12.48 (7.98, -) months
- Median TTR (range) (80mg (N=11)): 1.45 (1.35, 13.96) months
- BOR CR (100mg (N=3)): 0 n (%)
- BOR NE (100mg (N=3)): 0 n (%)
- BOR PD (100mg (N=3)): 0 n (%)
- BOR PR (100mg (N=3)): 2 (66.7) n (%)
- BOR SD (100mg (N=3)): 1 (33.3) n (%)
- Confirmed ORR (95% CI) (100mg (N=3)): 2 (66.7) (9.4, 99.2) n (%)
- DCR (95% CI) (100mg (N=3)): 3 (100) (29.2, 100.0) n (%)
- Median DOR (95% CI) (100mg (N=3)): 5.57 (4.17, -) months
- Median TTR (range) (100mg (N=3)): 2.05 (1.35, 2.76) months
- BOR CR (125mg (N=3)): 0 n (%)
- BOR NE (125mg (N=3)): 0 n (%)
- BOR PD (125mg (N=3)): 1 (33.3) n (%)
- BOR PR (125mg (N=3)): 1 (33.3) n (%)
- BOR SD (125mg (N=3)): 1 (33.3) n (%)
- Confirmed ORR (95% CI) (125mg (N=3)): 1 (33.3) (0.8, 90.6) n (%)
- DCR (95% CI) (125mg (N=3)): 2 (66.7) (9.4, 99.2) n (%)
- Median DOR (95% CI) (125mg (N=3)): 9.53 (-, -) months
- Median TTR (range) (125mg (N=3)): 1.38 (1.38, 1.38) months
